The NIST ThermoML archive (doi:10.1016/j.fluid.2005.06.022)
Numbers after ± are expanded uncertainties.

What was measured:
[1] = refractive index (Na D-line) (dimensionless); details: 101.33 kPa, Liquid, Standard Abbe refractometry
[2] = Liquid; for molar volume: 101.33 kPa

refractive index ([1]; 293.15 K) | molar volume ([2]; 293.15 K) [m3/mol] | SMILES | refractive index ([1]; 298.15 K) | molar volume ([2]; 298.15 K) [m3/mol] | also measured
– | – | C=CC#N [acrylonitrile] | 1.3888 ± 0.0012 | 6.629e-05 ± 3.6e-07 | vapor or sublimation pressure ([2]; 348.55 K): 94.7 ± 4.8 kPa
– | – | ClC(Cl)(Cl)Cl [tetrachloromethane] | 1.4574 ± 0.0012 | 9.708e-05 ± 6e-07 | vapor or sublimation pressure ([2]; 347.85 K): 94.7 ± 4.8 kPa
1.451 ± 0.0012 | 0.0001038 ± 5.7e-07 | O=C1CCCCC1 [cyclohexanone] | – | – | vapor or sublimation pressure ([2]; 426.35 K): 94.7 ± 4.8 kPa; vapor or sublimation pressure ([2]; 426.85 K): 94.7 ± 4.8 kPa
– | – | C1CCCCC1 [cyclohexane] | 1.4235 ± 0.0012 | 0.0001087 ± 5.9e-07 | vapor or sublimation pressure ([2]; 351.85 K): 94.7 ± 4.8 kPa
1.505 ± 0.0012 | 9.138e-05 ± 5.1e-07 | Cc1cnccn1 [2-methylpyrazine] | – | – | vapor or sublimation pressure ([2]; 396.65 K): 94.7 ± 4.8 kPa

SMILES | refractive index ([1]; 293.15 K) | molar volume ([2]; 293.15 K) [m3/mol] | refractive index ([1]; 298.15 K) | molar volume ([2]; 298.15 K) [m3/mol] | also measured
N#Cc1cnccn1 [2-cyanopyrazine] | 1.534 ± 0.0012 | 8.952e-05 ± 5.2e-07 | – | – | vapor or sublimation pressure ([2]; 476.05 K): 94.7 ± 4.8 kPa
